Results from ChEMBL document CHEMBL1667779, “Structure-based parallel medicinal chemistry approach to improve metabolic stability of benzopyran COX-2 inhibitors” (Bioorg Med Chem Lett, 2011).

Key:
[1] = molecular target: T1, Prostaglandin G/H synthase 2 (Homo sapiens, UniProt P35354)
T1 sequence (P35354 whole entry): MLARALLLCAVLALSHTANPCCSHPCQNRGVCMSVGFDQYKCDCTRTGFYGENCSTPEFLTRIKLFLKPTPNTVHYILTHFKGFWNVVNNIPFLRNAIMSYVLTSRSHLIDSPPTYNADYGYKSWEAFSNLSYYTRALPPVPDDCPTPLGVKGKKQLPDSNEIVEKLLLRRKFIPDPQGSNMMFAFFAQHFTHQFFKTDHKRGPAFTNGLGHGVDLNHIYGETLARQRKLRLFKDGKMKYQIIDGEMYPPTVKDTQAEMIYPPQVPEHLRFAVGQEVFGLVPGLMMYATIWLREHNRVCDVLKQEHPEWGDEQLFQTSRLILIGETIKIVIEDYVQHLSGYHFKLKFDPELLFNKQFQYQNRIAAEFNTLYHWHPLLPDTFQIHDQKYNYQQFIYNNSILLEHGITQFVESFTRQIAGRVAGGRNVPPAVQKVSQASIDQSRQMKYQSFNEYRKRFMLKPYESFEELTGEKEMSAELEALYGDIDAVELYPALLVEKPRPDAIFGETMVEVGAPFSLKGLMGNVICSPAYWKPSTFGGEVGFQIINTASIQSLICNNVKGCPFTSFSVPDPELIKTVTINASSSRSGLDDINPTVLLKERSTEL

[2] = molecular target: Prostaglandin G/H synthase 1 (Homo sapiens, UniProt P23219)
Prostaglandin G/H synthase 1, sequence (P23219 whole entry): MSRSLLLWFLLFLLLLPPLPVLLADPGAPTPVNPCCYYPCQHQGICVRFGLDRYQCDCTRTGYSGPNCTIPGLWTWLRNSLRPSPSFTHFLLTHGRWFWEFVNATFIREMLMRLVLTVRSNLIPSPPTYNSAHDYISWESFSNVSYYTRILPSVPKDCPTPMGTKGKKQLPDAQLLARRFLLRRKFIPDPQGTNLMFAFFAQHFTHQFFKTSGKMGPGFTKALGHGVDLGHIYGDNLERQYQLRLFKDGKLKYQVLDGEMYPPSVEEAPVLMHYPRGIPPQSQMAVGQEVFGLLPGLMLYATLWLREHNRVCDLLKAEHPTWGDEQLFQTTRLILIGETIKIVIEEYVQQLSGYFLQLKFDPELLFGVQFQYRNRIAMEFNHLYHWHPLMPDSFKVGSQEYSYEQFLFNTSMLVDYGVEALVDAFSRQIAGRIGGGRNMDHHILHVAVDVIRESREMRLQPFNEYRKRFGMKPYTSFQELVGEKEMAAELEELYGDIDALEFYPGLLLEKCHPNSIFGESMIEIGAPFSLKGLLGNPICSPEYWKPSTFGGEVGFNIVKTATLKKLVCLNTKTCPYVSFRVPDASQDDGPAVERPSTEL

Homo sapiens = species on record: Homo sapiens; test: Selectivity ratio of IC50 for human COX1 to IC50 for human COX2
[3] = Metabolic stability of the compound in human liver microsomes assessed as compound remaining at 2 mM after 30 mins by LC/MS analysis; type: ADME, Microsome; details: read-out: Stability
[4] = Metabolic stability of the compound in rat liver microsomes assessed as compound remaining at 2 mM after 30 mins by LC/MS analysis; type: ADME, Microsome; details: read-out: Stability
[5] = Solubility of the compound; type: physicochemical; details: read-out: Stability
[6] = Half life in human; type: ADME, organism-based; details: in vivo

| IC50 [1] | IC50 [2] | Selectivity ratio (Homo sapiens) | remaining at 0.5 h [3] | remaining at 0.5 h [4] | solubility [5] | half-life [6] | Structure (SMILES) |
| --- | --- | --- | --- | --- | --- | --- | --- |
| 0.188 µM | 1.54 µM | 8.2 |  |  |  |  | O=C(O)C1=Cc2cc(Cl)cc(-c3ccccc3)c2OC1C(F)(F)F (stereo not drawn) |
| 0.242 µM |  |  | 75% | 47% |  |  | CCSc1ccc(-c2cc(Cl)cc3c2OC(C(F)(F)F)C(C(=O)O)=C3)cc1 (stereo not drawn) |
| 40.1 µM | > 100 µM | > 2.5 | 100% | 53% |  |  | CS(=O)(=O)Nc1ccc(-c2cc(Cl)cc3c2OC(C(F)(F)F)C(C(=O)O)=C3)cc1 (stereo not drawn) |
| 21.3 µM | 3.87 µM | 0.182 |  |  |  |  | CS(=O)(=O)c1ccc(-c2cc(Cl)cc3c2OC(C(F)(F)F)C(C(=O)O)=C3)cc1 (stereo not drawn) |
| 1.82 µM | 1.39 µM | 0.764 | 93% | 53% |  |  | Nc1ccc(-c2cc(Cl)cc3c2OC(C(F)(F)F)C(C(=O)O)=C3)cc1 (stereo not drawn) |
| 0.339 µM | > 100 µM | > 295 | 84% | 61% |  |  | COc1ccc(-c2cc(Cl)cc3c2OC(C(F)(F)F)C(C(=O)O)=C3)cc1C (stereo not drawn) |
| 6.38 µM | 2.44 µM | 0.38 | 93% | 75% |  |  | O=C(O)C1=Cc2cc(Cl)cc(-c3ccc(CO)cc3)c2OC1C(F)(F)F (stereo not drawn) |
| 3.48 µM | 2.91 µM | 0.84 | 91% | 94% |  |  | O=C(O)C1=Cc2cc(Cl)cc(-c3ccc(O)cc3)c2OC1C(F)(F)F (stereo not drawn) |
|  | 91.4 µM | 120 |  |  |  |  | NS(=O)(=O)c1ccc(-c2cc(Cl)cc3c2OC(C(F)(F)F)C(C(=O)O)=C3)cc1 (stereo not drawn) |
| > 100 µM | > 100 µM |  | 90% | 91% |  |  | O=C(O)C1=Cc2cc(Cl)cc(-c3ccc(C(=O)O)cc3)c2OC1C(F)(F)F (stereo not drawn) |
| 0.355 µM | 32 µM | 90.1 | 91% | 82% |  |  | CCOc1ccc(-c2cc(Cl)cc3c2OC(C(F)(F)F)C(C(=O)O)=C3)cc1 (stereo not drawn) |
|  |  |  | 100% | 100% | > 30 µM | 15 days | O=C(O)C1=Cc2cc(Cl)cc(Cl)c2OC1C(F)(F)F (stereo not drawn) |
| 13.4 µM | 26.5 µM | 2 | 88% | 96% |  |  | CC(C)Cc1ccc(-c2cc(Cl)cc3c2OC(C(F)(F)F)C(C(=O)O)=C3)cc1 (stereo not drawn) |
|  |  | 375 | 31% | 55% |  |  | Cc1ccc(-c2cc(Cl)cc3c2OC(C(F)(F)F)C(C(=O)O)=C3)cc1F (stereo not drawn) |
|  | 17.7 µM | 226 | 18% | 60% |  |  | CCc1ccc(-c2cc(Cl)cc3c2OC(C(F)(F)F)C(C(=O)O)=C3)cc1 (stereo not drawn) |
| 0.0211 µM | 0.242 µM | 11.4 | 53% | 57% |  |  | O=C(O)C1=Cc2cc(Cl)cc(-c3ccc(Cl)cc3)c2OC1C(F)(F)F (stereo not drawn) |
| > 100 µM |  | < 0.007 |  |  |  |  | O=C(O)C1=Cc2cc(Cl)cc(-c3ccc(F)cc3)c2OC1C(F)(F)F (stereo not drawn) |
| 0.103 µM | 4.34 µM | 42.1 | 18% | 60% |  |  | Cc1ccc(-c2cc(Cl)cc3c2OC(C(F)(F)F)C(C(=O)O)=C3)cc1 (stereo not drawn) |
